According to US20060058299A1, “N-2s-4-3,4-difluorobenzyl morpholin-2yl methyl -2-(3-methylsulphonyl amino!phenyl acetamide as ccr3 antagonist for the treatment of inflammatory conditions” (priority 2002, published 2006):

Key:
[1] = biological target: eosinophils purified from human peripheral blood; assay: Eosinophil chemotaxis assay (eotaxin-induced); assay type: cell-based; details: agonist eotaxin at EC80 concentration
Experimental: (b) Eosinophil Chemotaxis Assay.
The compound was evaluated for its inhibitory effect on eosinophil chemotaxis. Eosinophils were purified from human peripheral blood by standard CD16 cell depletion using a Miltenyi cell separation column and a magnetic Super Macs magnet as previously described (Motegi & Kita, 1998; J. Immunology. 161:4340-6). Cells were re-suspended in RPMI 1640/10% FCS solution and incubated with calcein-AM (Molecular Probes) at 37° C. for 30 mins. Following incubation, the eosinophils were centrifuged at 400 g for 5 min and re-suspended in RPMI/FCS at 2.2 million/ml. Cells were then incubated in the presence of increasing concentration of compounds (1 pM to 30 μM) at 37° C. for 30 mins. For control responses cells were incubated with RPMI/FCS only. The agonist eotaxin (an EC80 concentration) was added to the lower chamber of a 96 well chemotaxis plate (5 μm filter. Receptor Technologies). Eosinophils (50 μl of 2 million/ml cells) were added to the top chamber of the filter plate and incubated at 37° C. for 45 mins. Cells remaining on top of the chemotaxis filter were removed and the number of eosinophils which had migrated were quantified by reading the plate on a fluorescent plate reader. Inhibition curves for the effect of compounds on eosinophil chemotaxis were analysed by fitting the data with a four parameter logistic equation. […]

CCR-3 = biological target: T1, CCR-3 (Homo sapiens, UniProt P51677); assay: CCR-3 competition binding SPA ([125I]eotaxin); details: membranes from K562 cells stably expressing CCR-3; 20 pM [125I]eotaxin; mean of at least two experiments; read-out: pIC50 (inhibition of [125I]eotaxin binding) (converted)
T1 construct: expressed in transfected cells; membranes)
T1 sequence (P51677 1-355): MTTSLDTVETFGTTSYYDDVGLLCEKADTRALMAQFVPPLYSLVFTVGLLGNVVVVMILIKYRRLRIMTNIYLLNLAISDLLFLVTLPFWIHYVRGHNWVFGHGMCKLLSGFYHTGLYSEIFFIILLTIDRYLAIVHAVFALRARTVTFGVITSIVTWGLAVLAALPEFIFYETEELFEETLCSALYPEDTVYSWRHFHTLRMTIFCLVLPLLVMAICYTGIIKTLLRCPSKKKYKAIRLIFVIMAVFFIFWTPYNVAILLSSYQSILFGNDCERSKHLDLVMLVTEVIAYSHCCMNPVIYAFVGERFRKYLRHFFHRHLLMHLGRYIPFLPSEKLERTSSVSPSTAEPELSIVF
Experimental: A CCR-3 competition binding SPA (scintillation proximity assay) was used to assess the affinity of novel compounds for CCR-3. Membranes prepared from K562 cells stably expressing CCR-3 (2.5 μg/well) were mixed with 0.25 mg/well wheat-germ agglutinin SPA beads (Amersham) and incubated in binding buffer (HEPES 50 mM, CaCl2 1 mM, MgCl2 5 mM, 0.5% BSA) at 4° C. for 1.5 hr. Following incubation, 20 pM of [^125I] eotaxin (Amersham) and increasing concentrations of compound (1 pM to 30 μM) were added and incubated in a 96 well plate for 2 hr at 22° C. then counted on a Microbeta plate counter. The total assay volume was 100 μl. Competition binding data were analysed by fitting the data with a four parameter logistic equation. Data are presented as the mean pIC50 values (negative logarithm of the concentration of compound which inhibits [^125I]eotaxin binding by 50%) from at least two experiments.

fpKi (functional pKi, eosinophil chemotaxis) [1]: 8.4
IC50 (CCR-3): 10 nM
SMILES: CS(=O)(=O)Nc1cccc(CC(=O)NC[C@H]2CN(Cc3ccc(F)c(F)c3)CCO2)c1 [Example 1, N-{[(2S)-4-(3.4-difluorobenzyl)morpholin-2-yl]methyl}-2-{3-[(methylsulfonyl)amino]phenyl}acetamide]
